Patent US8629102B2, “3-hydroxyisothiazole 1-oxide derivatives” (Mochida Pharmaceutical Co., Ltd., priority 2011, dated 2014)

Molecular target: T1, GPR40 of human origin (Homo sapiens, UniProt O14842)
T1 construct: expressed in transfected cells
Assay: Agonist action on GPR40 of human origin (intracellular Ca2+ change)
Assay type: cell-based
Conditions: CHO cell strain stably expressing GPR40 of human origin; change in Ca2+ concentration, fluorescent calcium indicator
Procedure, shortened: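 CHO cells stably expressing human GPR40, cultured overnight, then loaded 1 h with Calcium 4 dye plus probenecid in HEPES-buffered HBSS. Compound added in 20 mM HEPES-HBSS; intracellular Ca2+ change read by fluorescence, EC50 from dose-response of fluorescence change.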

T1 sequence (O14842 whole entry): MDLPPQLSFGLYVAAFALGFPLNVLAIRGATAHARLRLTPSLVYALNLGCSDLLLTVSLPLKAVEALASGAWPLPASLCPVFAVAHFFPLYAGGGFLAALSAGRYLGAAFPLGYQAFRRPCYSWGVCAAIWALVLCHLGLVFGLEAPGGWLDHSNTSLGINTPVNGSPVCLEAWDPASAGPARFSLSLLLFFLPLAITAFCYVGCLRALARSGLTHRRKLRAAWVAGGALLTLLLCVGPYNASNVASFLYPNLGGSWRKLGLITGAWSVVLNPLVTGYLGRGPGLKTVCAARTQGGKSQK

| Compound | EC50 [nM] |
| --- | --- |
| [O-][s+]1nc(O)cc1-c1ccc(O[C@@H]2CCc3c(-c4ccc(OCC5CC5)nc4)cccc32)cc1 (stereo partly drawn) [Example 78, 5-(4-(((R)-4-(6-(cyclopropylmethoxy)pyridin-3-yl)-2,3-dihydro-1H-inden-1-yl)oxy)phenyl)-3-hydroxyisothiazole 1-oxide] | < 300 |
| CC(C)(O)CCOc1cccc(Oc2cccc3c2CC[C@H]3Oc2ccc(-c3cc(O)n[s+]3[O-])cc2)c1 (stereo partly drawn) [Example 112, 3-hydroxy-5-(4-(((R)-4-(3-(3-hydroxy-3-methylbutoxy)phenoxy)-2,3-dihydro-1H-inden-1-yl)oxy)phenyl)isothiazole 1-oxide] | < 300 |
| N#Cc1ccc(Oc2cccc3c2CC[C@H]3Oc2ccc(-c3cc(O)n[s+]3[O-])cc2)nc1 (stereo partly drawn) [Example 118, 6-(((1R)-1-(4-(3-hydroxy-1-oxidoisothiazol-5-yl)phenoxy)-2,3-dihydro-1H-inden-4-yl)oxy)nicotinonitrile] | < 300 |
| N#Cc1ccc(-c2cccc3c2CC[C@H]3Oc2ccc(-c3cc(O)n[s+]3[O-])cc2)cn1 (stereo partly drawn) [Example 157, 5-((1R)-1-(4-(3-hydroxy-1-oxidoisothiazol-5-yl)phenoxy)-2,3-dihydro-1H-inden-4-yl)picolinonitrile] | 300 to 3000 |
| N#Cc1ccc(Oc2cccc3c2OCC3Oc2ccc(-c3cc(O)n[s+]3[O-])cc2)cc1 (stereo not drawn) [Example 138, 4-((3-(4-(3-hydroxy-1-oxidoisothiazol-5-yl)phenoxy)-2,3-dihydrobenzofuran-7-yl)oxy)benzonitrile] | < 300 |
| [O-][s+]1nc(O)cc1-c1ccc(O[C@@H]2CCc3c(-c4ccccc4OCc4ccccc4)cccc32)cc1 (stereo partly drawn) [Example 42, 5-(4-(((R)-4-(2-benzyloxyphenyl)-2,3-dihydro-1H-inden-1-yl)oxy)phenyl)-3-hydroxyisothiazole 1-oxide] | < 300 |
| CC(=O)c1ccc(-c2cccc3c2CC[C@H]3Oc2ccc(-c3cc(O)n[s+]3[O-])cc2)s1 (stereo partly drawn) [Example 79, 1-(5-((1R)-1-(4-(3-hydroxy-1-oxidoisothiazol-5-yl)phenoxy)-2,3-dihydro-1H-inden-4-yl)thiophen-2-yl)ethanone] | < 300 |
| [O-][s+]1nc(O)cc1-c1ccc(O[C@@H]2CCc3c2cccc3N2CCCc3ccccc32)cc1 (stereo partly drawn) [Example 158, 5-(4-(((R)-4-(3,4-dihydroquinoline-1(2H)-yl)-2,3-dihydro-1H-inden-1-yl)oxy)phenyl)-3-hydroxyisothiazole 1-oxide] | < 300 |
| [O-][s+]1nc(O)cc1-c1ccc(O[C@@H]2CCc3c(Oc4cccc(CCO)c4)cccc32)cc1 (stereo partly drawn) [Example 89, 3-hydroxy-5-(4-(((R)-4-(3-(2-hydroxyethyl)phenoxy)-2,3-dihydro-1H-inden-1-yl)oxy)phenyl)isothiazole 1-oxide] | < 300 |
| Cc1ncccc1Oc1cccc2c1CC[C@H]2Oc1ccc(-c2cc(O)n[s+]2[O-])cc1 (stereo partly drawn) [Example 126, 3-hydroxy-5-(4-(((R)-4-((2-methylpyridin-3-yl)oxy)-2,3-dihydro-1H-inden-1-yl)oxy)phenyl)isothiazole 1-oxide] | < 300 |
| COc1cccc(Oc2cccc3c2CC[C@H]3Oc2ccc(-c3cc(O)n[s+]3[O-])cc2)n1 (stereo partly drawn) [Example 149, 3-hydroxy-5-(4-(((R)-4-((6-methoxypyridin-2-yl)oxy)-2,3-dihydro-1H-inden-1-yl)oxy)phenyl)isothiazole 1-oxide] | < 300 |
| CC(C)c1ccccc1-c1cccc2c1CC[C@H]2Oc1ccc(-c2cc(O)n[s+]2[O-])cc1 (stereo partly drawn) [Example 34, 5-(4-(((R)-4-(2-isopropylphenyl)-2,3-dihydro-1H-inden-1-yl)oxy)phenyl)-3-hydroxyisothiazole 1-oxide] | 300 to 3000 |
| CCOc1ccc(F)cc1-c1cccc2c1CC[C@H]2Oc1ccc(-c2cc(O)n[s+]2[O-])cc1 (stereo partly drawn) [Example 4, 5-(4-(((1R)-4-(2-ethoxy-5-fluorophenyl)-2,3-dihydro-1H-inden-1-yl)oxy)phenyl)-3-hydroxyisothiazole 1-oxide] | < 300 |
| CCOc1cccc(-c2cccc3c2CC[C@H]3Oc2ccc(-c3cc(O)n[s+]3[O-])cc2)c1 (stereo partly drawn) [Example 32, 5-(4-(((R)-4-(3-ethoxyphenyl)-2,3-dihydro-1H-inden-1-yl)oxy)phenyl)-3-hydroxyisothiazole 1-oxide] | 300 to 3000 |
| COc1ccc(Oc2cccc3c2CC[C@H]3Oc2ccc(-c3cc(O)n[s+]3[O-])cc2)cc1 (stereo partly drawn) [Example 92, 3-hydroxy-5-(4-(((R)-4-(4-methoxyphenoxy)-2,3-dihydro-1H-inden-1-yl)oxy)phenyl)isothiazole 1-oxide] | < 300 |
| COc1cc(Cl)cc(-c2cccc3c2CC[C@H]3Oc2ccc(-c3cc(O)n[s+]3[O-])cc2)c1 (stereo partly drawn) [Example 14, 5-(4-(((R)-4-(3-chloro-5-methoxyphenyl)-2,3-dihydro-1H-inden-1-yl)oxy)phenyl)-3-hydroxyisothiazole 1-oxide] | < 300 |
| [O-][s+]1nc(O)cc1-c1ccc(O[C@@H]2CCc3c(-c4ccc(F)cc4OCc4ccccc4)cccc32)cc1 (stereo partly drawn) [Example 61, 5-(4-(((R)-4-(2-benzyloxy-4-fluorophenyl)-2,3-dihydro-1H-inden-1-yl)oxy)phenyl)-3-hydroxyisothiazole 1-oxide] | 300 to 3000 |

| Compound | EC50 [nM] |
| --- | --- |
| COc1cccc(-c2cccc3c2CC[C@H]3Oc2ccc(-c3cc(O)n[s+]3[O-])cc2)c1 (stereo partly drawn) [Example 30, 5-(4-(((R)-4-(3-methoxyphenyl)-2,3-dihydro-1H-inden-1-yl)oxy)phenyl)-3-hydroxyisothiazole 1-oxide] | < 300 |
| [O-][s+]1nc(O)cc1-c1ccc(OCCc2ccccc2Oc2ccccc2)cc1 (stereo not drawn) [Example 161, 3-hydroxy-5-(4-(2-phenoxyphenethoxy)phenyl)isothiazole 1-oxide] | < 300 |
| N#Cc1ccc(Oc2cccc3c2CC[C@H]3Oc2ccc(-c3cc(O)n[s+]3[O-])cc2)cc1N1CCOC1=O (stereo partly drawn) [Example 131, 4-(((R)-1-(4-(3-hydroxy-1-oxidoisothiazol-5-yl)phenoxy)-2,3-dihydro-1H-inden-4-yl)oxy)-2-(2-oxooxazolidin-3-yl)benzonitrile] | < 300 |
| [O-][s+]1nc(O)cc1-c1ccc(O[C@@H]2CCc3c(Oc4ccc(N5CCOCC5)nc4)cccc32)cc1 (stereo partly drawn) [Example 109, 3-hydroxy-5-(4-(((R)-4-((6-morpholinopyridin-3-yl)oxy)-2,3-dihydro-1H-inden-1-yl)oxy)phenyl)isothiazole 1-oxide] | < 300 |
| [O-][s+]1nc(O)cc1-c1ccc(O[C@@H]2CCc3c(-c4cccc(F)c4F)cccc32)cc1 (stereo partly drawn) [Example 17, 5-(4-(((R)-4-(2,3-difluorophenyl)-2,3-dihydro-1H-inden-1-yl)oxy)phenyl)-3-hydroxyisothiazole 1-oxide] | < 300 |
| [O-][s+]1nc(O)cc1-c1ccc(O[C@@H]2CCc3c(Oc4ccc(CCO)cc4)cccc32)cc1 (stereo partly drawn) [Example 88, 3-hydroxy-5-(4-(((R)-4-(4-(2-hydroxyethyl)phenoxy)-2,3-dihydro-1H-inden-1-yl)oxy)phenyl)isothiazole 1-oxide] | < 300 |
| CNC(=O)c1ccc(Oc2cccc3c2CC[C@H]3Oc2ccc(-c3cc(O)n[s+]3[O-])cc2)cc1 (stereo partly drawn) [Example 136, 4-(((1R)-1-(4-(3-hydroxy-1-oxidoisothiazol-5-yl)phenoxy)-2,3-dihydro-1H-inden-4-yl)oxy)-N-methylbenzamide] | < 300 |
| Cc1nc(OCCC(C)(C)O)ccc1Oc1cccc2c1CC[C@H]2Oc1ccc(-c2cc(O)n[s+]2[O-])cc1 (stereo partly drawn) [Example 101, 3-hydroxy-5-(4-(((R)-4-((6-(3-hydroxy-3-methylbutoxy)-2-methylpyridin-3-yl)oxy)-2,3-dihydro-1H-inden-1-yl)oxy)phenyl)isothiazole 1-oxide] | < 300 |
| COc1cccc(-c2cccc3c2CC[C@H]3Oc2ccc(-c3cc(O)n[s+]3[O-])cc2)c1F (stereo partly drawn) [Example 59, 5-(4-(((R)-4-(2-fluoro-3-methoxyphenyl)-2,3-dihydro-1H-inden-1-yl)oxy)phenyl)-3-hydroxyisothiazole 1-oxide] | < 300 |
| [O-][s+]1nc(O)cc1-c1ccc(O[C@@H]2CCc3c(Oc4cnc5ccccc5c4)cccc32)cc1 (stereo partly drawn) [Example 104, 3-hydroxy-5-(4-(((R)-4-(quinolin-3-yloxy)-2,3-dihydro-1H-inden-1-yl)oxy)phenyl)isothiazole 1-oxide] | < 300 |
| CCOCCOc1cc(C)c(Oc2cccc3c2CC[C@H]3Oc2ccc(-c3cc(O)n[s+]3[O-])cc2)c(C)c1 (stereo partly drawn) [Example 108, 5-(4-(((R)-4-(4-(2-ethoxyethoxy)-2,6-dimethylphenoxy)-2,3-dihydro-1H-inden-1-yl)oxy)phenyl)-3-hydroxyisothiazole 1-oxide] | < 300 |
| Cc1ccc(Oc2cccc3c2CC[C@H]3Oc2ccc(-c3cc(O)n[s+]3[O-])cc2)cc1 (stereo partly drawn) [Example 93, 3-hydroxy-5-(4-(((R)-4-(p-tolyloxy)-2,3-dihydro-1H-inden-1-yl)oxy)phenyl)isothiazole 1-oxide] | < 300 |
| CCOc1cc(Cl)ccc1-c1cccc2c1CC[C@H]2Oc1ccc(-c2cc(O)n[s+]2[O-])cc1 (stereo partly drawn) [Example 18, 5-(4-(((R)-4-(4-chloro-2-ethoxyphenyl)-2,3-dihydro-1H-inden-1-yl)oxy)phenyl)-3-hydroxyisothiazole 1-oxide] | 300 to 3000 |
| N#Cc1ccc(Oc2cccc3c2CC[C@H]3Oc2ccc(-c3cc(O)n[s+]3[O-])cc2)cn1 (stereo partly drawn) [Example 119, 5-(((1R)-1-(4-(3-hydroxy-1-oxidoisothiazol-5-yl)phenoxy)-2,3-dihydro-1H-inden-4-yl)oxy)picolinonitrile] | < 300 |
| COc1ccc(Cl)cc1-c1cccc2c1CC[C@H]2Oc1ccc(-c2cc(O)n[s+]2[O-])cc1 (stereo partly drawn) [Example 55, 5-(4-(((R)-4-(5-chloro-2-methoxyphenyl)-2,3-dihydro-1H-inden-1-yl)oxy)phenyl)-3-hydroxyisothiazole 1-oxide] | 300 to 3000 |
| [O-][s+]1nc(O)cc1-c1ccc(O[C@@H]2CCc3c(-c4cccc5c4oc4ccccc45)cccc32)cc1 (single isomer, unassigned) [Example 80] | < 300 |
